Laboratory results: US20160024051A1, “SALTS AND SOLID FORMS OF ISOQUINOLINONES AND COMPOSITION COMPRISING AND METHODS OF USING THE SAME” (INFINITY PHARMACEUTICALS, INC., priority 2013, published 2016)

What was measured:
[1] = Gravimetric vapour sorption (GVS); type: physicochemical; conditions: for GVS: moisture on loading: loaded at 40% RH, 25° C.; for GVS: XRPD after the experiment: re-analysis by XRPD after GVS
Method: Sorption isotherms were obtained using a Hiden IGASorp moisture sorption analyser, controlled by CFRSorp software. The sample temperature was maintained at 25° C. by a Huber re-circulating water bath. The humidity was controlled by mixing streams of dry and wet nitrogen, with a total flow rate of 250 ml/min. The relative humidity (RH) was measured by a calibrated Vaisala RH probe (dynamic range of 0-95% RH), located near the sample. The weight change, (mass relaxation) of the sample as a function of % RH was constantly monitored by the microbalance (accuracy ±0.001 mg). Typically 10-20 mg of sample was placed in a tared mesh stainless steel basket under ambient conditions. The sample was loaded and unloaded at 40% RH and 25° C. (typical room conditions). A moisture sorption isotherm was performed as outlined below (2 scans giving 1 complete cycle). The standard isotherm was performed at 25° C. at 10% RH intervals over a 0-90% RH range.
The software uses a least squares minimisation procedure together with a model of the mass relaxation, to predict an asymptotic value. The measured mass relaxation value must be within 5% of that predicted by the software, before the next % RH value is selected. The minimum equilibration time was set to 1 hour and the maximum to 4 hours. The sample was recovered after completion of the isotherm and re-analysed by XRPD.

[2] = Solubility of free base hydrate and salts versus pH (Table 24); type: physicochemical
[3] = Polymorphism study: maturation (temperature cycling RT to 50° C.) in solvents, XRPD; type: physicochemical
Method: One of 21 solvents was added to each vial in a number of aliquots (up to 30 volumes), with shaking. All the samples were then placed under maturation between RT to 50° C. (4 hours at each temperature) for 3 days. After maturation the samples were analysed by XRPD. Clear solutions were cooled to −20° C. (freezer). If no precipitation occurred samples were evaporated at RT.
Samples were placed under maturation between RT-50° C. (4 hours cycle) for 3 days. After maturation the samples were analyzed by XRPD. Clear solutions were then cooled to −20° C. (freezer). If no precipitation occurred, samples were evaporated at RT.
The corresponding solvents and solvent mixtures were added in portions of (a total of) 5, 10, 20, and 30 volumes at 50° C., with shaking, aiming for clear solutions. After each addition, the vials were allowed to shake for 20 minutes, after which observations were made. Solutions were allowed to evaporate, whereas slurries were set for 8 hour temperature cycling maturation, between RT and 50° C., for 5 days.
The oils obtained by solvent evaporation were used for the maturation screen. Anhydrous solvents (5 volumes; 100 μL) were used in order to minimise the amount of water present. Any solutions were allowed to slowly evaporate, whereas slurries were set for 8 hour temperature cycling maturation, between RT and 50° C. […] These were matured for a further 24 hours before performing XRPD analysis.
The selected solvents and solvent mixtures (5 to 20 volumes) were added with stirring. Any solutions were allowed to slowly evaporate, whereas slurries were set for 8 hour temperature cycling maturation, between RT and 50° C., for 2 days.
Crystals were ground in order to analyse them by XRPD. Suspensions were set for temperature cycling for a total of five days after which time XRPD analysis was carried out.

[4] = Storage at 40° C./75% RH (elevated humidity) for 1 week, re-analysis by XRPD/HPLC; conditions: for Storage 40° C./75% RH: salt screen solids, 1 week, XRPD pattern or observation
Method: The crystalline solids were filtered, dried at ambient conditions, and stored at 40° C./75% RH for 1 week and analyzed by ^1H NMR/IC.
Samples from the screen using amorphous free base Compound 1 were analysed by ^1H-NMR and DSC, and re-analysis by XRPD was also carried out after drying at 50° C./vacuum and storage at 40° C./75% RH (the same sample was dried and stored at elevated humidity).

[5] = Solubility assessment using FB Hydrate Form 2; type: physicochemical; conditions: for Solubility: (RT)
Method: The best solvent systems (clear solutions) were methanol:anisole 1:1 and DMSO (10 volumes, at RT), dioxane (10 volumes, 50° C.), chloroform (20 volumes, RT). […]

## CC(=O)O.COc1cc(-c2cccc3cc([C@H](C)Nc4nc(N)ncc4C#N)n(-c4ccccc4)c(=O)c23)ccn1.COc1cc(-c2cccc3cc([C@H](C)Nc4nc(N)ncc4C#N)n(-c4ccccc4)c(=O)c23)ccn1 [Batch 1 of Form 6]
[1]; between 0-90% RH
  GVS: second cycle reversible moisture uptake: cycle shows 4.9%
[1]
  GVS: moisture on loading: 6.3% w/w moisture on
  GVS: XRPD after the experiment: anhydrous Form 4

## COc1cc(-c2cccc3cc([C@H](C)Nc4nc(N)ncc4C#N)n(-c4ccccc4)c(=O)c23)ccn1.O=C(O)/C=C\C(=O)O [Maleic acid salt]
[2]; 0.1N HCl, 37° C., at saturation
  Solubility: 34 mg/mL
[2]; Simulated Gastric Fluid
  Solubility: >19 mg/mL
[2]; Simulated Intestinal Fluid
  Solubility: 0.01 mg/mL
[2]; Water (pH 4.43)
  Solubility: ~0.2 mg/mL (pH 4.43)
[2]; citrate buffer, pH 2.5, at 37° C.
  Solubility: 3.13 mg/mL at 37 °C
[2]; citrate buffer, pH 2.5, at RT
  Solubility: 1.8 mg/mL at RT;
[2]; pH 1.6, 37° C.
  Solubility: >4
[2]; pH 1.6, RT
  Solubility: >4
[2]; pH 2.5, 37° C.
  Solubility: 3.07
[2]; pH 2.5, RT
  Solubility: 3.57
[2]; pH 2.9, 37° C.
  Solubility: 1.62
[2]; pH 2.9, RT
  Solubility: 1.39
[2]; pH 3.8, 37° C.
  Solubility: 0.31
[2]; pH 3.8, RT
  Solubility: 0.24

## COc1cc(-c2cccc3cc([C@H](C)Nc4nc(N)ncc4C#N)n(-c4ccccc4)c(=O)c23)ccn1.O=S(=O)(O)O.O=S(=O)(O)O [Amorphous Bis-Sulfuric Acid Salt]
[3]; amorphous oil in anhydrous BuOAc 100 μL, maturation 48 h, RT-50° C. cycling
  XRPD: Amorphous
[3]; amorphous oil in anhydrous DCM 100 μL, maturation 48 h, RT-50° C. cycling
  XRPD: Amorphous
[3]; amorphous oil in anhydrous DIPE 100 μL, maturation 48 h, RT-50° C. cycling
  XRPD: Amorphous
[3]; amorphous oil in anhydrous Dioxane 100 μL, maturation 48 h, RT-50° C. cycling
  XRPD: Amorphous glass
[3]; amorphous oil in anhydrous EtOAc 100 μL, maturation 48 h, RT-50° C. cycling
  XRPD: Amorphous
[3]; amorphous oil in anhydrous IPA 100 μL, maturation 48 h, RT-50° C. cycling
  XRPD: Amorphous glass
[3]; amorphous oil in anhydrous Methanol 100 μL, solution set for evaporation
  XRPD: Oil
[3]; amorphous oil in anhydrous TBME 100 μL, maturation 48 h, RT-50° C. cycling
  XRPD: Amorphous
[3]; amorphous oil in anhydrous THF 100 μL, maturation 48 h, RT-50° C. cycling
  XRPD: Amorphous
[3]; amorphous oil in anhydrous Toluene 100 μL, maturation 48 h, RT-50° C. cycling
  XRPD: Amorphous

## COc1cc(-c2cccc3cc([C@H](C)Nc4nc(N)ncc4C#N)n(-c4ccccc4)c(=O)c23)ccn1 [listing 1 of 2 here]
[4]; listed as 1-2-Ethane disulfonic acid
  Storage 40° C./75% RH: acid salt Pattern 1

## COc1cc(-c2cccc3cc([C@H](C)Nc4nc(N)ncc4C#N)n(-c4ccccc4)c(=O)c23)ccn1.O [FB Hydrate Form 2]
[5]; 2-MeTHF, 50 vols
  Solubility at 50° C.: ✓
[5]; DCM, 75 vols
  Solubility at 50° C.: ✓
[5]; DCM:MeOH 1:1, 75 vols
  Solubility at 50° C.: ✓
[5]; DMSO, 10 vols
  Solubility: ✓
[5]; Dioxane, 10 vols
  Solubility at 50° C.: ✓
[5]; MeCN/5% water, 75 vols
  Solubility at 50° C.: ✓
[5]; MeOH/anisole, 10 vols
  Solubility: ✓
[5]; THF, 50 vols
  Solubility at 50° C.: Almost
[5]; THF, 75 vols
  Solubility at 50° C.: ✓
[5]; chloroform, 20 vols
  Solubility: ✓
[3]; FB Hydrate Form 2 in 1-butanol, Maturation
  XRPD: Crystalline Form 5
[3]; FB Hydrate Form 2 in 2-MeTHF, Evaporation yielded oil, maturation of oil
  XRPD: Crystalline Form 5
[3]; FB Hydrate Form 2 in Acetone, Maturation
  XRPD: Crystalline Form 5
[3]; FB Hydrate Form 2 in DCM:MeOH 1:1, Crystallization in fridge
  XRPD: Crystalline Form 5 + Form 1
[3]; FB Hydrate Form 2 in DCM, Crystallization in fridge
  XRPD: Crystalline Form 5
[3]; FB Hydrate Form 2 in DMSO, No crystallization in fridge, set for evaporation
  XRPD: Amorphous
[3]; FB Hydrate Form 2 in Dioxane, Evaporation yielded oil, maturation of oil
  XRPD: Crystalline Form 5 + Form 3
[3]; FB Hydrate Form 2 in EtOAc, Maturation
  XRPD: Crystalline Form 5
[3]; FB Hydrate Form 2 in EtOH/5% water, Maturation
  XRPD: Crystalline Form 5
[3]; FB Hydrate Form 2 in EtOH/water 1:1, Maturation
  XRPD: Crystalline Form 2
[3]; FB Hydrate Form 2 in EtOH, Maturation
  XRPD: Crystalline Form 5
[3]; FB Hydrate Form 2 in IPA, Maturation
  XRPD: Crystalline Form 5
[3]; FB Hydrate Form 2 in IPAc, Maturation
  XRPD: Crystalline Form 5
[3]; FB Hydrate Form 2 in MIBK, Maturation
  XRPD: Crystalline Form 5
[3]; FB Hydrate Form 2 in MeCN/5% water, Crystallization in fridge
  XRPD: Crystalline Form 5
[3]; FB Hydrate Form 2 in MeOH/anisole, Crystallization in fridge
  XRPD: Crystalline Form 5
[3]; FB Hydrate Form 2 in THF, Crystallization in fridge
  XRPD: Crystalline Form 5
[3]; FB Hydrate Form 2 in acetonitrile, Maturation
  XRPD: Crystalline Form 5
[3]; FB Hydrate Form 2 in chloroform, Cooling in fridge yielded oil, maturation of oil
  XRPD: Crystalline Form 5

## COc1cc(-c2cccc3cc([C@H](C)Nc4nc(N)ncc4C#N)n(-c4ccccc4)c(=O)c23)ccn1 [Form 4 of Free Base Compound 1]
[1]; between 70-90% RH, with hysteresis on desorption
  GVS: moisture uptaken: 4.8 % w/w
[1]
  GVS: moisture on loading: 0.3 % w/w
  GVS: XRPD after the experiment: No changes by XRPD after the experiment.

## COc1cc(-c2cccc3cc([C@H](C)Nc4nc(N)ncc4C#N)n(-c4ccccc4)c(=O)c23)ccn1 [Form 6 of the free base of Compound 1]
[4]; elevated humidity conditions, not specified in the sentence, listed as Form 6
  solid form after storage at elevated humidity: conversion to Hydrate Form 3
[1]; text statements, listed as Form 6
  GVS behaviour (hydration / desolvation): Desolvation to the anhydrous Form 4

## COc1cc(-c2cccc3cc([C@H](C)Nc4nc(N)ncc4C#N)n(-c4ccccc4)c(=O)c23)ccn1 [listing 2 of 2 here]
[4]; listed as 2-Hydroxyethane sulfonic acid
  Storage 40° C./75% RH: Deliquesced
